Earlier results in patent US7842686B2, “CGRP receptor antagonists” (Vertex Pharmaceuticals Incorporated, priority 2006, dated 2010).
No end group written: not given here.

Key:
facial blood flow [1] = conditions: marmoset, electrical stimulation of the trigeminal ganglion
[2] = tested on: acute attacks of migraine; conditions: clinical trials (Olesen et al. 2004)
middle meningeal artery = conditions: rats, electrical stimulation of the dura mater, prior administration
facial blood flow [3] = conditions: rat, trigeminal ganglion stimulation

Molecule	effect on increase in facial blood flow (facial blood flow [1])	efficacy in acute attacks of migraine [2]	effect on increase of middle meningeal artery diameter (middle meningeal artery)	effect on increase of facial blood flow (facial blood flow [3])
NCCCC[C@H](NC(=O)[C@@H](Cc1cc(Br)c(O)c(Br)c1)NC(=O)N1CCC(N2Cc3ccccc3NC2=O)CC1)C(=O)N1CCN(c2ccncc2)CC1 [BIBN4096BS]	could be blocked	effective in treating acute attacks of migraine		
CGRP(8-37): a peptide CGRP antagonist (VTHRLAGLLSRSGGVVKNNFVPTNVGSKAF-NH2; ends and bridges not checked; UniProt P06881 90-119, looked up, fragment)			blocked	inhibited
